Laboratory results from US20260317324A1, “BIFUNCTIONAL COMPOUNDS FOR DEGRADING BRAF VIA UBIQUITIN PROTEOSOME PATHWAY” (Nurix Therapeutics, Inc., priority 2023, published 2026).

Assays:
Assay type in all cases: cell-based
BRAF G469A = target: T1, BRAF G469A (Homo sapiens, UniProt P15056, G469A); assay: BRAF HiBiT degradation assay, C-terminal HiBiT-tagged BRAF G469A overexpressed in HCT-116 BRAF−/− cells (clone 34), Nano-Glo HiBiT Lytic assay
T1 construct: Horizon Discovery (HCT-116 BRAF−/− cells); host or cells: HCT-116 BRAF−/− cells, clone 34, lentiviral transduction
Source text: (§1) An A375 cell line expressing a homozygous V600E mutation was purchased from ATCC (Manassas, VA, USA). An A375 clone 1F10 cell line with an endogenous C-terminal HiBiT fusion tag on BRAF V600E allele was generated internally using CRISPR-Cas9 technology and cultured in DMEM, high glucose supplemented with 10% FBS and 1× GlutaMAX. A HCT-116 BRAF−/− cell line overexpressing the C-terminal HiBiT-tagged G466V, G469A, and D594G mutants were generated by lentiviral transduction, externally at Biosettia Inc (San Diego, CA, USA). The stably transfected cells were cultured in RPMI media supplemented with 10% FBS, 1× GlutaMAX, and 0.25 μg/ml puromycin. DMEM medium, RPMI 1640 medium, GlutaMAX, fetal bovine serum (FBS), and puromycin were purchased from Gibco (Grand Island, NY, USA). HCT-116 BRAF−/− cells were purchased from Horizon Discovery (Waterbeach, UK).
(§2) The C-terminal HiBiT tagged mutant BRAF G466V, G469A, and D594G overexpressed in HCT-116 BRAF−/− cells (monoclonal cell line, cell clones 8, 34, and 63, respectively) were seeded at the density of 3,000 cells/well in 30 μL media (RPMI supplemented with 10% FBS and 1× GlutaMAX) in white opaque 384-well plates (Corning #3570) from column 1 to column 23. Wildtype HCT-116 BRAF cells were seeded in column 24 at the same cell density in 30 μL media. Cells were incubated at 37° C. with 5% CO2 for 24 h.
(§3) Intermediate compound dilution series (5-point, ranging from 5 mM to 0.5 μM, 10-fold dilutions in DMSO) were prepared in a source plate (Beckman Coulter cat. no. 001-16128). Final compound dilution series (11-point, ranging from 1 μM to 0.01 nM, half-log dilutions in DMSO) were stamped into the assay plate (Corning #3570, column 1-11 and 12-22) using the Echo Acoustic Liquid Handler (Beckman Coulter). Each compound was plated in duplicate, and the total volume of compound DMSO solution was 60 nL/well (0.2% final DMSO concentration). DMSO was included in wells A23-L23 and A24-L24. The DMSO-treated HiBiT-tagged samples served as Negative Control (NC) and the DMSO-treated wildtype samples served as Background Control (BC) for the HiBiT assay.
(§4) HiBiT signal was measured by a Nano-Glo HiBiT Lytic assay (Promega cat. no. N3050). HiBiT lytic detection reagent (Nano-Glo HiBiT Lytic Buffer with 1:50 Nano-Glo HiBiT Lytic Substrate and 1:100 LgBiT Protein, 40 μL) was added using Bravo. The mixture was incubated at room temperature, in the dark, and with gentle shaking for 10 min. Luminesce units (LU) were read on an EnVision plate reader 2105 (Perkin Elmer).
(§5) Percent protein remaining and viability remaining per sample were calculated as follows: […]
(§6) % Protein remaining values were plotted as a function of compound concentration. XC50 (DC50) values were determined by fitting curves using the following equation:
(§7) For the HiBiT degradation assay, the key parameters reported include: • The dose of compound that produces 50% degradation (DC50 at 50%): • DC50 at 50%: the Fitted X value (Conc.) at Y=50 (response) • Observed Dmax (Obs. Dmax) is the percentage protein degraded at maximal compound effect relative to DMSO-treated control: […]

BRAF V600E = target: T2, BRAF V600E (Homo sapiens, UniProt P15056, V600E); assay: BRAF HiBiT degradation assay, C-terminal HiBiT-tagged BRAF V600E A375 cells (clone 1F10), Nano-Glo HiBiT Lytic assay; conditions: for Dmax: A-375
T2 construct: endogenous C-terminal HiBiT fusion tag on BRAF V600E allele; endogenous in cells; host or cells: A375 clone 1F10 (CRISPR-Cas9 knock-in of the HiBiT tag; parental A375 from ATCC)
Outline: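 Luminescence read-out: Nano-Glo HiBiT lytic reagent with LgBiT, 10 min at room temperature. Signal normalised to DMSO-treated tagged cells, with wildtype A375 as background. Cells are endogenously tagged BRAF V600E A375 clone 1F10. Compounds were tested from 1 μM to 0.01 nM; Dmax is observed % degraded at maximal effect.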

BRAF D594G = target: T3, BRAF D594G (Homo sapiens, UniProt P15056, D594G); assay: BRAF HiBiT degradation assay, C-terminal HiBiT-tagged BRAF D594G overexpressed in HCT-116 BRAF−/− cells (clone 63), Nano-Glo HiBiT Lytic assay
T3 construct: Horizon Discovery (HCT-116 BRAF−/− cells); host or cells: HCT-116 BRAF−/− cells, clone 63, lentiviral transduction
Source text: as §1, §2, §3, §4, §5, §6, §7

BRAF G466V = target: T4, BRAF G466V (Homo sapiens, UniProt P15056, G466V); assay: BRAF HiBiT degradation assay, C-terminal HiBiT-tagged BRAF G466V overexpressed in HCT-116 BRAF−/− cells (clone 8), Nano-Glo HiBiT Lytic assay
T4 construct: Horizon Discovery (HCT-116 BRAF−/− cells); host or cells: HCT-116 BRAF−/− cells, clone 8, lentiviral transduction
Source text: as §1, §2, §3, §4, §5, §6, §7

[1] = BRAF G469A (Class 2), HCT-116 BRAF−/− cells, DC50 at 50% degradation
[2] = BRAF G469A (Class 2), HCT-116 BRAF−/− cells, observed Dmax relative to DMSO control
[3] = A375 (BRAF V600E, Class 1), DC50 at 50% degradation
[4] = A375 (BRAF V600E, Class 1), observed Dmax, % protein degraded relative to DMSO control
[5] = BRAF D594G (Class 3), HCT-116 BRAF−/− cells, DC50 at 50% degradation
[6] = BRAF D594G (Class 3), HCT-116 BRAF−/− cells, observed Dmax relative to DMSO control
[7] = BRAF G466V (Class 3), HCT-116 BRAF−/− cells, DC50 at 50% degradation
[8] = BRAF G466V (Class 3), HCT-116 BRAF−/− cells, observed Dmax relative to DMSO control
[9] = Class 2, BRAF G469A, DC50 at 50%: fitted conc. at Y=50
[10] = HCT-116, Class 2, BRAF G469A, percentage protein degraded at maximal compound effect relative to DMSO
[11] = A375 (BRAF V600E), DC50 at 50%: fitted conc. at Y=50
[12] = A375 (BRAF V600E), percentage protein degraded at maximal compound effect relative to DMSO
[13] = BRAF D594G, DC50 at 50%: fitted conc. at Y=50
[14] = HCT-116, BRAF D594G, percentage protein degraded at maximal compound effect relative to DMSO
[15] = BRAF G466V, DC50 at 50%: fitted conc. at Y=50
[16] = HCT-116, BRAF G466V, percentage protein degraded at maximal compound effect relative to DMSO

T4 sequence (P15056 whole entry G466V): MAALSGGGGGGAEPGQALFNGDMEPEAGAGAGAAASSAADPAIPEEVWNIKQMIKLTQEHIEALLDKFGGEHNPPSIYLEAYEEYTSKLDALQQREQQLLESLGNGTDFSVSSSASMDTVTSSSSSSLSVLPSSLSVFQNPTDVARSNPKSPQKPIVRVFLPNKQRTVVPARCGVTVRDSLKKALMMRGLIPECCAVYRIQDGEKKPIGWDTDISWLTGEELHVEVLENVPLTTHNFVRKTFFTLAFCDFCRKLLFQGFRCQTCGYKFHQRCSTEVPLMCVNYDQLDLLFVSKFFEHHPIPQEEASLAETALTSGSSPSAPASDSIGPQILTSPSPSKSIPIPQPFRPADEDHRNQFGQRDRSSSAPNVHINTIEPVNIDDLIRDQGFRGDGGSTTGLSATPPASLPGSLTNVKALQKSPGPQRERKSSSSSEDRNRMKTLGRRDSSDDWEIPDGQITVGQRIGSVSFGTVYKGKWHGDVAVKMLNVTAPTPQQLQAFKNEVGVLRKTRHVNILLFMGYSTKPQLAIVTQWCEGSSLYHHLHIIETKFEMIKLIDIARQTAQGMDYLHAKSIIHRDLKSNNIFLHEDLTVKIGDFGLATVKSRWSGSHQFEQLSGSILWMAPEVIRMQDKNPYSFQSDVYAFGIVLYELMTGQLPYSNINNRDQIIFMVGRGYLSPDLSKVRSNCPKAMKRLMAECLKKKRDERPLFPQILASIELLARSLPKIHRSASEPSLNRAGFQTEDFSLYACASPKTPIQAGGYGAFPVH
T2 sequence (P15056 whole entry V600E, the tested form may be a part): as the sequence (P15056 whole entry G466V) above, with V466G, V600E counted along it
T1 sequence (P15056 whole entry G469A): as the sequence (P15056 whole entry G466V) above, with V466G, G469A counted along it
T3 sequence (P15056 whole entry D594G): as the sequence (P15056 whole entry G466V) above, with V466G, D594G counted along it

Structure (SMILES) | DC50 (BRAF G469A; [1]) [nM] | Dmax (BRAF G469A; [2]) [%] | DC50 (BRAF V600E; [3]) [nM] | Dmax (BRAF V600E; [4]) [%] | DC50 (BRAF D594G; [5]) [nM] | Dmax (BRAF D594G; [6]) [%] | DC50 (BRAF G466V; [7]) [nM] | Dmax (BRAF G466V; [8]) [%] | DC50 (BRAF G469A; [9]) [nM] | Dmax (BRAF G469A; [10]) [%] | DC50 (BRAF V600E; [11]) [nM] | Dmax (BRAF V600E; [12]) [%] | DC50 (BRAF D594G; [13]) [nM] | Dmax (BRAF D594G; [14]) [%] | DC50 (BRAF G466V; [15]) [nM] | Dmax (BRAF G466V; [16]) [%]
C[C@@H]1CN(c2ccc(-n3cc(-c4cc(Cl)cc(NS(=O)(=O)N5CCCC5)c4F)c(-c4ccncc4)n3)nc2)CCN1CC1CCN(c2ccc([C@H]3CCC(=O)NC3=O)cc2)CC1 [Compound 326, N-[5-chloro-3-(1-{5-[(3R)-4-[(1-{4-[(3R)-2,6-dioxopiperidin-3-yl]phenyl}piperidin-4-yl)methyl]-3-methylpiperazin-1-yl]pyridin-2-yl}-3-(pyridin-4-yl)-1H-pyrazol-4-yl)-2-fluorophenyl]pyrrolidine-1-sulfonamide] | 10 to 50 | 30 to 70 | < 10 | > 70 | < 10 | > 70 | < 10 | > 70 | – | – | – | – | – | – | – | –
CCCS(=O)(=O)Nc1cccc(-c2nc(C(C)(C)C)sc2-c2ccnc(Nc3cnn(C4CCN(CC5CCN(c6ccc(C(=O)N[C@@H]7CCC(=O)NC7=O)nc6)CC5)CC4)c3)n2)c1F [Compound 67, 5-{4-[(4-{4-[(4-{2-tert-butyl-4-[2-fluoro-3-(propane-1-sulfonamido)phenyl]-1,3-thiazol-5-yl}pyrimidin-2-yl)amino]-1H-pyrazol-1-yl}piperidin-1-yl)methyl]piperidin-1-yl}-N-[(3R)-2,6-dioxopiperidin-3-yl]pyridine-2-carboxamide] | – | – | – | – | – | – | – | – | > 500 | < 30 | < 10 | 30 to 70 | > 500 | 30 to 70 | > 500 | < 30
CCCS(=O)(=O)Nc1cccc(-c2nc(C(C)(C)C)sc2-c2ccnc(Nc3ccc4c(c3)CCN(C(=O)CN3CCC(c5ccc(NC6CCC(=O)NC6=O)cc5)CC3)C4)n2)c1F (racemic) [Compound 123, Rac-N-[3-(2-tert-butyl-5-{2-[(2-{2-[4-(4-{[(3R)-2,6-dioxopiperidin-3-yl]amino}phenyl)piperidin-1-yl]acetyl}-1,2,3,4-tetrahydroisoquinolin-6-yl)amino]pyrimidin-4-yl}-1,3-thiazol-4-yl)-2-fluorophenyl]propane-1-sulfonamide] | – | – | – | – | – | – | – | – | > 500 | < 30 | 10 to 50 | 30 to 70 | > 500 | < 30 | > 500 | < 30
CCCS(=O)(=O)Nc1cccc(-c2nc(C3CCN(C(=O)C4(C)CCN(C(=O)C5CCN(c6ccc(C7CCC(=O)NC7=O)cc6)CC5)CC4)CC3)sc2-c2ccnc(NC(C)C)n2)c1F (racemic) [Compound 179, Rac-N-[3-(2-{1-[1-(1-{4-[(3R)-2,6-dioxopiperidin-3-yl]phenyl}piperidine-4-carbonyl)-4-methylpiperidine-4-carbonyl]piperidin-4-yl}-5-{2-[(propan-2-yl)amino]pyrimidin-4-yl}-1,3-thiazol-4-yl)-2-fluorophenyl]propane-1-sulfonamide] | – | – | – | – | – | – | – | – | > 500 | < 30 | < 10 | > 70 | < 10 | 30 to 70 | > 500 | 30 to 70
O=C1CC[C@H](c2ccc(N3CCC(CN4CCN(c5ccc(-n6cc(-c7cc(F)cc(NS(=O)(=O)N8CCCC8)c7F)c(-c7ccncc7)n6)cc5)CC4)CC3)cc2)C(=O)N1 [Compound 299, N-{3-[1-(4-{4-[(1-{4-[(3R)-2,6-dioxopiperidin-3-yl]phenyl}piperidin-4-yl)methyl]piperazin-1-yl}phenyl)-3-(pyridin-4-yl)-1H-pyrazol-4-yl]-2,5-difluorophenyl}pyrrolidine-1-sulfonamide] | 10 to 50 | 30 to 70 | < 10 | > 70 | < 10 | 30 to 70 | < 10 | > 70 | – | – | – | – | – | – | – | –
CCCS(=O)(=O)Nc1cccc(-c2nc(C(C)(C)C)sc2-c2ccnc(Nc3cnn(CC4CCN(C(=O)CN5CCc6cc(C7CCC(=O)NC7=O)ccc6C5)CC4)c3)n2)c1F (racemic) [Compound 119, Rac-N-[3-(2-tert-butyl-5-{2-[(1-{[1-(2-{6-[(3R)-2,6-dioxopiperidin-3-yl]-1,2,3,4-tetrahydroisoquinolin-2-yl}acetyl)piperidin-4-yl]methyl}-1H-pyrazol-4-yl)amino]pyrimidin-4-yl}-1,3-thiazol-4-yl)-2-fluorophenyl]propane-1-sulfonamide] | – | – | – | – | – | – | – | – | > 500 | < 30 | < 10 | > 70 | > 500 | 30 to 70 | > 500 | < 30
O=C1CCC(c2ccc(N3CCC(CN4CCCN(c5ccc(-n6cc(-c7cc(Cl)cc(NS(=O)(=O)N8CCCC8)c7F)c(-c7ccncc7)n6)c(F)c5)CC4)CC3)nc2)C(=O)N1 (racemic) [Compound 345, Rac-N-{5-chloro-3-[1-(4-{4-[(1-{5-[(3R)-2,6-dioxopiperidin-3-yl]pyridin-2-yl}piperidin-4-yl)methyl]-1,4-diazepan-1-yl}-2-fluorophenyl)-3-(pyridin-4-yl)-1H-pyrazol-4-yl]-2-fluorophenyl}pyrrolidine-1-sulfonamide] | > 500 | < 30 | < 10 | > 70 | > 500 | < 30 | > 500 | 30 to 70 | – | – | – | – | – | – | – | –
